Reference: US10786474B2, “Pharmaceutical suspensions containing drug particles, devices for their administration, and methods of their use” (SynAgile Corporation, priority 2015, dated 2020)
In brackets after ≈: the same amount, converted by molar mass. Several values for one entry are separate records, joined by “and”; a condition that tells them apart may be missing. Equal entries are not always repeated. Where two headings read alike, the source gives them in different places.

What was measured:
[1] = in vivo; cited from earlier work
[2] = extended release tablets; various studies; cited from earlier work
Solubility of LD = assay type: physicochemical; details: citrate buffered solution of about pH 4.5, 25° C.
Protocol: LD is poorly soluble in most non-toxic solvents, including water and alcohols. […] LD is even less soluble in alcohols. To deliver a typical daily dose of 1,000 mg approximately 150 mL of saturated LD aqueous solution would be required, which is incompatible with the volume requirements for a drug delivery device placed in the mouth.

[3] = assumed for dissolution of orally delivered solid LD in saliva; cited from earlier work

In the case of Cc1ccc(C(=O)c2cc(O)c(O)c([N+](=O)[O-])c2)cc1 [Tolcapone], the “crossing of the blood-brain barrier” value [1] is given as “crosses the barrier”, the hepatotoxicity [1] is given as “limited by its hepatotoxicity” and the plasma half-life [1] is given as 2 to 3 h.

In the case of NC(=O)N1c2ccccc2C=Cc2ccccc21 [Carbamazepine], the “Fluctuation Index” value [2] is listed as 0.31 and 0.26 and 0.47 and 0.49.

For CCN(CC)C(=O)/C(C#N)=C/c1cc(O)c(O)c([N+](=O)[O-])c1 [Entacapone], the “crossing of the blood-brain barrier” value [1] is listed as “does not cross the blood-brain barrier”, the physiological half-life [1] is listed as “less than 1 hour” and the plasma half-life [1] is listed as 0.4 to 0.7 h.

In the case of N[C@@H](Cc1ccc(O)c(O)c1)C(=O)O [LD, levodopa], the solubility (Solubility of LD; aqueous buffer, read-out: solubility) is given as roughly 34 mM (≈ 6700 µg/mL), the solubility (Solubility of LD) is given as “about 0.68 g/100 mL” and the solubility [3] is given as “about 50 mg/mL”.

In the case of CC[C@@H](C(N)=O)N1CCCC1=O [Levetiracetam], the “Fluctuation Index” value [2] is given as 1.19 and 1.27.
